Columns and labels:
[1] = system: patients with active noninfectious anterior uveitis; assay: Phase II randomized, investigator-masked, comparator-controlled trial of NS2 eye drops in anterior uveitis; format: in vivo, human
Excerpt: Group 2 patients will alternate doses of NS2 and Pred Forte®. All patients will be instructed to maintain at least one hour between any two doses. Patients will be followed for up to 8 weeks and monitored for safety and efficacy at six scheduled visits. Efficacy will be assessed by standard ophthalmic examination procedures and response to treatment will be graded according to established uveitis scales. […] Rescue therapy will consist of therapy dosed at the clinical discretion of the treating physician. Rescued patients will receive a follow-up assessment one week after rescue, and then they will be discontinued from the study. Study drug will be self-administered by the patient (or caregiver). Subjects will be instructed to administer study drug per the treatment arm they are assigned to. Subjects randomized to NS2 or Pred Forte® will begin with one drop in the study eye four (4) times per day. Subjects randomized to the NS2 and Pred Forte® group will be instructed to administer one drop of NS2 four (4) times per day alternating with Pred Forte® two (2) times per day. Pred Forte® will be tapered weekly and continued for up to five (5) weeks as described in Table 1. Based the pre-clinical activity of NS2 in diminishing TH1 cytokines as well as ocular inflammation in a pre-clinical model of uveitis, a Phase II trial of topical ocular NS2 was initiated in patients with active noninfectious anterior uveitis, a rare but serious autoimmune-like ocular disease that can lead to blindness. The design of the anterior uveitis Phase II trial was a randomized, parallel group, investigator-masked, comparator-controlled trial to evaluate the safety and efficacy of NS2 ophthalmic solution in patients with anterior uveitis. The trial assessed signs and symptoms of anterior uveitis including anterior chamber cell counts, which are utilized as the primary endpoints in registration studies of anterior uveitis. The study was conducted at 15 clinical sites in the US. […] Pred Forte® was dosed two (2) times daily and then tapered over a 4 week period. […] Prior to un-masking, one subject in the Pred Forte® group was removed from the ITT population for a history of ovarian cancer within the past 5 years, which met exclusion criteria. […] Patients were followed for 8 weeks and monitored for safety and efficacy at six scheduled visits. Efficacy was assessed by standard ophthalmic examination procedures including slit lamp examination and response to treatment was graded according to established uveitis scales. The visit schedule included a screening randomization visit, a day 4 telephone follow-up visit, and clinic visits at week 1, 2, 4, and 8. […] Rescued patients were followed through the week 8 end of study visit.

[2] = Phase 1 clinical study, 7 day QID topical dosing; format: in vivo, human
Procedure: (§1) The proposed proof of concept study will use the 0.5% dose level of NS2. This dose was selected based on the Phase 1 clinical study results under IND 104,497 and a 9-month dog study with QID (OU) dosing at 0.5%, 0.25%, and 0.1% (w/v). […] Based on the safety profile of the 9-month dog study where 0.5% NS2 was administered QID topically and the 7 day Phase 1 clinical study, a maximum treatment duration of 6-weeks was proposed.

[3] = 9-month dog study with QID (OU) topical dosing; format: in vivo
Procedure: as §1

in vivo = conditions: primates
Procedure: To allow for continuous exposure, NS2 0.5% will be administered at a dose of 4 times per day in Group 1 and Group 2. Aldehydes at concentrations of 10 μM are cytotoxic in cell culture (Maeda et al., 2012, Nat Chem Biol. 8(2):170-8). […] In primates, a single dose of 0.5% NS2 results in anterior eye tissue concentrations that range from 17.6 μM just after dosing to 1.2 μM three hours post dosing.

[4] = system: patients with allergic conjunctivitis; assay: Phase II clinical trial of topical ocular NS2 in allergic conjunctivitis; format: in vivo, human; conditions: after a single eye drop
Excerpt: Based on the proposed role of aldehydes in mediating inflammation, in addition to the pre-clinical activity of NS2 in reducing IL-5 and other TH2 cytokines, a Phase II clinical trial of a single dose of topical ocular NS2 was initiated in patients with allergic conjunctivitis, and positive results were obtained from that trial in February 2016. The trial design and data from that trial have been reported previously. […] The positive clinical effects of NS2 continued […].

[5] = system: TH1 and TH2 inflammatory cytokines, IL-10; conditions: systemically administered; cited from earlier work
ocular inflammation = conditions: cited from earlier work

SMILES: CC(C)(O)c1nc2ccc(Cl)cc2cc1N [NS2]
- frequency of ocular stinging and burning ([1]; NS2 treated groups): increased frequency
- effects on anterior chamber cell counts ([1]; anterior uveitis population): clinically meaningful effects
- tolerability ([1]; anterior uveitis population, 0.5% drops 4 times daily, 6 weeks): generally well tolerated
- rescue medication required, proportion of patients ([1]; during the study): 20%
- safety concerns (ocular exam scores, intra-ocular pressure, corneal thickness, visual acuity) ([1]; during the study): no safety concerns
- subjects withdrawn for an adverse event of stinging ([1]; in vivo): One
- ACC improvement of at least 1 grade, proportion of patients with successful response ([1]; time point not given): 53%
- reducing inflammatory cell count in the anterior chamber of the eye versus standard of care corticosteroid ([1]; topical ocular): statistically indistinguishable from standard of care corticosteroid administration
- grade 0 ACC (anterior chamber cell count) treatment response, proportion of patients ([1]; week 2 study visit, mITT population): 33%
- sustained grade 0 ACC treatment response, proportion of patients ([1]; week 8 study visit, mITT population): 40%
- tolerability ([2]; 0.5% NS2 group, 7 day QID dosing): well tolerated
- concentration at 7 day ([2]; human, plasma, topical, 0.5% NS2, 7 day QID dosing, detection limit, each subject, read-out: plasma levels of NS2): < 5 ng/mL
- macroscopic or microscopic evaluations ([3]; 9-month, QID (OU) at 0.5%, 0.25%, 0.1% (w/v)): no abnormal findings
- tolerability ([3]; dog, in vivo): well tolerated
- anterior eye tissue concentration (in vivo): 17.6 µM
- concentration at 3 h (in vivo): 1200 nM
- ocular itching and tearing [4]: significantly reduced
- IL-10 (anti-inflammatory cytokine) [5]: up-regulating
- levels of TH1 and TH2 inflammatory cytokines [5]: significantly lowered
- activity versus topical ocular corticosteroid administration (ocular inflammation): compared favorably
